Data reported in patent publication US8268859B2, “Glucocorticoid mimetics, methods of making them, pharmaceutical compositions and uses thereof” (Boehringer Ingelheim International GmbH, priority 2008, dated 2012).
Where two headings read alike, the source gives them in different places.

Molecular target: T1, human glucocorticoid receptor (GR) complex (Homo sapiens, UniProt P04150)
T1 construct: made in house; host or cells: insect expression system (baculovirus lysate)
T1 sequence (P04150 1-777): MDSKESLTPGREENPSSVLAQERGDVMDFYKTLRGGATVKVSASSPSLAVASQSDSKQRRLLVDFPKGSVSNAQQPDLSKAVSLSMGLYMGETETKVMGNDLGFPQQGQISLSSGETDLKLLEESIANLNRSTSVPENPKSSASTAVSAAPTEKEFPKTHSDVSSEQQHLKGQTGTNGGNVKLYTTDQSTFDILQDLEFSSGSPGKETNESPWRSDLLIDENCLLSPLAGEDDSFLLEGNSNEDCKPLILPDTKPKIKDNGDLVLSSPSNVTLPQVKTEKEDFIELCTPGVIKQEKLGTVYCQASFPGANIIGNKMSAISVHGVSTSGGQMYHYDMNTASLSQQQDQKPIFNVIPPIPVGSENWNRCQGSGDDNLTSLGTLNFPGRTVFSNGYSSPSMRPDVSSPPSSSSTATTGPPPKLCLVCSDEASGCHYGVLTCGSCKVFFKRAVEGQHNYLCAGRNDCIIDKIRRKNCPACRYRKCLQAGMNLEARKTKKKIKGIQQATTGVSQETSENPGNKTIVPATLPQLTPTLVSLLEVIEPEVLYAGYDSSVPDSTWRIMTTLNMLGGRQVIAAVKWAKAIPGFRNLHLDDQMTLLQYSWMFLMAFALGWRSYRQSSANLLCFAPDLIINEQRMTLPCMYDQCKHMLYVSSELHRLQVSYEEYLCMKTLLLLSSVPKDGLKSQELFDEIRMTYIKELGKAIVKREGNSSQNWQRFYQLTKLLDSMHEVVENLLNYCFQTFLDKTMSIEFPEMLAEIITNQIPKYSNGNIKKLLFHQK
Experiment: Glucocorticoid receptor fluorescence polarization competitive binding assay;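 note: GR complex expressed in an insect system, wells lacking compound give full signal, excess unlabeled dexamethasone defines the blank, IC50 from logistic curve fit of polarization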

[1] = Table 1, competition with TAMRA-labeled dexamethasone, read-out: GR IC50

| Structure (SMILES) | IC50 [1] [nM] | IC50 [nM] |
| --- | --- | --- |
| CC(C)(CC(O)(Cc1cc2cc(S(C)(=O)=O)ncc2[nH]1)C(F)(F)F)c1cc(F)ccc1S(C)(=O)=O (stereo not drawn) [1,1,1-Trifluoro-4-(5-fluoro-2-methanesulfonylphenyl)-2-(5-methanesulfonyl-1H-pyrrolo[2,3-c]pyridin-2-ylmethyl)-4-methylpentan-2-ol] | 19 |  |
| CCCS(=O)(=O)c1cc2cc(CC(O)(CC(C)(C)c3cc(F)ccc3S(C)(=O)=O)C(F)(F)F)[nH]c2cn1 (stereo not drawn) [1,1,1-Trifluoro-4-(5-fluoro-2-methanesulfonylphenyl)-4-methyl-2-[5-(propane-1-sulfonyl)-1H-pyrrolo[2,3-c]pyridin-2-ylmethyl]pentan-2-ol] | 13 |  |
| CC(C)S(=O)(=O)c1cc2cc(CC(O)(CC(C)(C)c3cc(F)ccc3S(C)(=O)=O)C(F)(F)F)[nH]c2cn1 (stereo not drawn) [1,1,1-Trifluoro-4-(5-fluoro-2-methanesulfonylphenyl)-4-methyl-2-[5-(propane-2-sulfonyl)-1H-pyrrolo[2,3-c]pyridin-2-ylmethyl]pentan-2-ol] | 71 |  |
| CCS(=O)(=O)c1cc2cc(CC(O)(CC(C)(C)c3ccccc3S(C)(=O)=O)C(F)(F)F)[nH]c2cn1 (stereo not drawn) [2-(5-Ethanesulfonyl-1H-pyrrolo[2,3-c]pyridin-2-ylmethyl)-1,1,1-trifluoro-4-(2-methanesulfonylphenyl)-4-methylpentan-2-ol] | 44 |  |
| CCS(=O)(=O)c1cc2cc(CC(O)(CC(C)(C)c3cccc(F)c3S(C)(=O)=O)C(F)(F)F)[nH]c2cn1 (stereo not drawn) [2-(5-Ethanesulfonyl-1H-pyrrolo[2,3-c]pyridin-2-ylmethyl)-1,1,1-trifluoro-4-(3-fluoro-2-methanesulfonylphenyl)-4-methylpentan-2-ol] | 55 |  |
| CCS(=O)(=O)c1cc2cc(CC(O)(CC(C)(C)c3ccc(C)cc3C(N)=O)C(F)(F)F)[nH]c2cn1 (stereo not drawn) [2-[3-(5-Ethanesulfonyl-1H-pyrrolo[2,3-c]pyridin-2-ylmethyl)-4,4,4-trifluoro-3-hydroxy-1,1-dimethylbutyl]-5-methylbenzamide] | 80 |  |
| CCS(=O)(=O)c1cc2cc(CC(O)(CC(C)(C)c3ccccc3S(N)(=O)=O)C(F)(F)F)[nH]c2cn1 (stereo not drawn) [2-[3-(5-Ethanesulfonyl-1H-pyrrolo[2,3-c]pyridin-2-ylmethyl)-4,4,4-trifluoro-3-hydroxy-1,1-dimethylbutyl]benzenesulfonamide] | 140 |  |
| CC(C)(C[C@@](O)(Cc1cc2nc(S(C)(=O)=O)ccc2[nH]1)C(F)(F)F)c1ccccc1C(N)=O [2-[(R)-4,4,4-Trifluoro-2-hydroxy-3-(5-meethanesulfonyl-1H-pyrrolo[3,2-b]pyridin-2-ylmethyl)-1,1-dimethylbutyl]benzamide] | 32 |  |
| CC(C)(CC(O)(Cc1cc2cc(S(C)(=O)=O)ncc2[nH]1)C(F)(F)F)c1cc(F)ccc1Br (stereo not drawn) [4-(2-Bromo-5-fluorophenyl)-1,1,1-trifluoro-2-(5-methanesulfonyl-1H-pyrrolo[2,3-c]pyridin-2-ylmethyl)-4-methylpentan-2-ol] | 6 |  |
| CC(C)(CC(O)(Cc1cc2cc(S(C)(=O)=O)ncc2[nH]1)C(F)(F)F)c1cc(Cl)ccc1S(C)(=O)=O (stereo not drawn) [4-(5-Chloro-2-methanesulfonylphenyl)-1,1,1-trifluoro-2-(5-methanesulfonyl-1H-pyrrolo[2,3-c]pyridin-2-ylmethyl)-4-methylpentan-2-ol] |  | 10 |
| CC(C)(CC(O)(Cc1cc2cc(S(C)(=O)=O)ncc2[nH]1)C(F)(F)F)c1cc(F)ccc1O (stereo not drawn) [4-Fluoro-2-[4,4,4-trifluoro-3-hydroxy-3-(5-methanesulfonyl-1H-pyrrolo[2,3-c]pyridin-2-ylmethyl)-1,1-dimethylbutyl]phenol] | 25 |  |
| CCS(=O)(=O)c1cc2cc(CC(O)(CC(C)(C)c3cc(C)ccc3C(N)=O)C(F)(F)F)[nH]c2cn1 (stereo not drawn) [4-Methyl-2-[4,4,4-trifluoro-3-hydroxy-3-(5-ethanesulfonyl-1H-pyrrolo[2,3-c]pyridin-2-ylmethyl)-1,1-dimethylbutyl]benzamide] | 38 |  |
